Results taken from patent US12516027B2, “Lappaconitine derivative and use thereof” (priority 2020, dated 2026).

What was measured:
[1] = test system: ovariectomized (OVX) mice; test: Animal model of osteoporosis, ovariectomized (OVX) mice; format: in vivo
Excerpt: An ability of QG3030 to treat osteoporosis was confirmed in an animal model of ovariectomized (OVX) mice commonly used as an animal model of osteoporosis.
As the positive controls, parathyroid hormone (PTH)-based Forteo (Eli Lilly) used as an osteoporosis therapeutic agent through an osteogenesis-promoting mechanism, and alendronate-based Fosamax (Merck) serving as a bone resorption inhibitor were subcutaneously administered. As the negative control, water (H2O) was orally administered, and QG3030 was orally administered at a concentration of 5 or 30 mg/kg (FIG. 9A). After the drug was administered daily for 10 weeks, the bone mineral density (BMD) was measured.
In Table 2, BMD represents bone mineral density, TV represents total volume, BV represents bone volume, Tb.Th represents trabecular thickness, and Tb.N represents trabecular number.

RUNX2 [2] = test: RUNX2 expression in MSCs with QG3030 and ERK inhibitor PD98059; format: cell-based, human; settings: same at 24 hours
Protocol: (§1) ERK may induce the phosphorylation of RUNX2 to increase transcriptional activity and may be involved in stability to increase an amount of RUNX2 protein (Greenblatt et al., MB, Annu Rev Cell Dev Biol. 2013). Therefore, an increase in ERK phosphorylation by QG3030 may induce RUNX2 expression so that QG3030 can be involved in the differentiation of MSCs into osteoblasts. To verify this, an expression level of RUNX2 was determined after MSCs were treated with a combination of QG3030 (0.1 μM) and the ERK inhibitor PD98059 (50 μM).

ERK [3] = test: Phosphorylated ERK in MSCs with QG3030 and ERK inhibitor PD98059; format: cell-based, human
Protocol: as §1

BMP-2 = test: Change in expression of BMP-2 in MSCs (antibody staining, fluorescence microscope); format: cell-based, human; settings: 0.001 μM, once a day for 7 and 14 days; increased with increasing concentration
Excerpt: (§2) Runt-related transcription factor 2 (RUNX2; core-binding factor alpha, Cbfa1) is the most important transcriptional regulatory factor for osteogenesis, and is known to be involved in osteoblast differentiation, matrix generation, and mineralization during osteogenesis (Bruderer M, et al., Eur Cell Mater. 2014). Also, RUNX2 itself may be regulated by a bone morphogenetic protein (BMP), which is a type of cytokine (Sun J, et al., Mol Med Rep. 2015). Accordingly, it was confirmed whether QG3030 promotes the expression of osteogenesis-related specific factors to induce osteogenesis.
(§3) MSCs were seeded in a 24-well plate at a concentration of 3×10^4 cells/well, and cultured for 24 hours. From the next day, the MSCs were treated with different concentrations (0.001 μM, 0.01 μM, and 0.1 μM) of QG3030 once a day for 7 days and 14 days. After the experiment was completed, the MSCs were stained with RUNX2 and BMP-2 antibodies, and observed using a fluorescence microscope.

human MSCs = test: Osteocytic differentiation potential in MSCs (Alizarin Red and Von Kossa staining); format: cell-based; settings: 0.1 μM, cultured for 3 weeks, like OIM positive control
Protocol: Osteoblasts involved in the osteogenesis are formed by differentiating mesenchymal stem cells (MSCs) using external stimuli and transcription factors involved in various signaling pathways (Garg et al., Orthop Surg. 2017). Accordingly, an experiment was performed to check whether QG3030 was able to induce the differentiation of human MSCs into osteoblasts.
MSCs from normal humans were purchased from the American Type Culture Collection (ATCC, U.S.A), and cultured in an MSC-specific culture medium (Gibco). The cultured cells were digested with trypsin, centrifuged, and then seeded in a 24-well plate at a concentration of 3×10^4 cells/well. The next day, the MSC culture medium was exchanged with a DMEM (DMEM/10% FBS/penicillin/streptomycin) as an experimental medium, and the cells were treated with QG3030 alone (0.1 μM) or OIM (osteogenesis-inducing medium; StemPro Osteogenesis Differentiation Kit, ThermoFisher Scientific Inc.) as the positive control. Thereafter, the cell culture medium was exchanged with a fresh DMEM every day, treated with QG3030 or OIM, and then cultured for 3 weeks. After the culture was completed, the cells were stained with Alizarin Red for detection of calcium and Von Kossa for detection of mineral production.

RUNX2 [4] = test: Change in expression of RUNX2 in MSCs (antibody staining, fluorescence microscope); format: cell-based, human; settings: 0.001 μM, once a day for 7 and 14 days; increased with increasing concentration
Excerpt: as §2, §3

Sprague Dawley (SD) rat = test: Animal model of bone fracture, ilium bone defect; format: in vivo
Protocol: The ilium of a Sprague Dawley (SD) rat was subjected to drilling with a diameter of 2 mm to induce a bone defect, and QG3030 (6, 30, and 150 μg/10 μL) mixed with an excipient (collagen sponge, CollaCote®) was implanted into a bone defect site to evaluate an osteoanagenic effect (FIG. 11).
To statistically quantify the osteoanagenic capacity of QG3030, a degree of osteogenesis was realized with a 3-D image, and a region of interest (ROI) was set to analyze parameters such as bone volume/total volume (BV/TV; %), trabecular thickness (Tb.Th; mm), trabecular number (Tb.N; 1/mm), and trabecular separation (Tb.Sp; mm).

osteocalcin = test: Change in expression of osteocalcin in MSCs (antibody staining, fluorescence microscope); format: cell-based, human; settings: 0.001 μM, within 7 days
Protocol: Osteocalcin is expressed only in osteoblasts (Lee et al., Cell 2007), and is used as a biomarker useful for osteogenesis (Bharadwaj et al., Osteoporosis International., 2009).
An experiment was performed in the same manner as described in Experimental Example 1-2, and MSCs were then stained with an osteocalcin antibody, and observed using a fluorescence microscope.

ERK, Akt, WNK1 = test: Phosphokinase antibody array in MSCs; format: cell-based, human; settings: 1 μM, 24 hours, compared to control DMSO
Protocol: To study a mechanism by which QG3030 differentiates MSCs into osteoblasts, related signaling was investigated.
MSCs cultured in an experimental DMEM were treated with QG3030 (1 μM) or the control compound (DMSO), and cultured for 24 hours. The cells were recovered, and an experiment was then performed according to a method specified in a phosphokinase antibody array kit (R&D Systems) containing antibodies that specifically recognize phosphorylated forms of 43 kinases. Then, samples were analyzed using an ImageJ (NIH, USA) program.

MSCs = test: Osteoblast differentiation of MSCs with kinase inhibitor combination (Alizarin Red); format: cell-based, human; settings: QG3030 1 μM + kinase inhibitor 1 μM, 3 weeks, compared to QG3030-alone group
Protocol: To further study the mechanism by which QG3030 differentiates MSCs into osteoblasts, an experiment was performed using a kinase inhibitor.
After MSCs were cultured, the MSCs were simultaneously treated with a kinase inhibitor (1 μM) and QG3030 (1 μM). The next day, the medium was exchanged, and the MSCs were simultaneously treated again with the kinase inhibitor and QG3030. This procedure was repeated for 3 weeks, and the MSCs were then stained with Alizarin Red.

ERK [5] = test: Level of phosphorylated ERK (pERK) in MSCs over time; format: cell-based, human
Protocol: Accordingly, the level of the phosphorylated ERK according to time elapsed after MSCs were treated with QG3030 was determined.
Also, to determine whether QG3030 induces ERK phosphorylation for a long period, MSCs were treated with various concentrations (0.001, 0.01, and 0.1 μM) of QG3030, and the level of phosphorylated ERK (pERK) was checked after 7 days and 14 days.

[6] = OVX mice, positive control, subcutaneous, daily for 10 weeks
[7] = implanted in collagen sponge at bone defect site, QG3030 low, medium and high, BMP2 1 ug/10 uL
[8] = OVX mice, 5 mg/kg oral, daily for 10 weeks
[9] = OVX mice, 30 mg/kg oral, daily for 10 weeks
[10] = OVX mice, 5 or 30 mg/kg oral, daily for 10 weeks

In the case of `CC[C@H](C)[C@H](NC(=O)[C@H](CCC(=O)O)NC(=O)[C@H](CO)NC(=O)[C@@H](NC(=O)[C@@H](N)CO)C(C)C)C(=O)N[C@@H](CCC(N)=O)C(=O)N[C@@H](CC(C)C)C(=O)N[C@@H](CCSC)C(=O)N[C@@H](Cc1cnc[nH]1)C(=O)N[C@@H](CC(N)=O)C(=O)N[C@@H](CC(C)C)C(=O)NCC(=O)N[C@@H](CCCCN)C(=O)N[C@@H](Cc1cnc[nH]1)C(=O)N[C@@H](CC(C)C)C(=O)N[C@@H](CC(N)=O)C(=O)N[C@@H](CO)C(=O)N[C@@H](CCSC)C(=O)N[C@@H](CCC(=O)O)C(=O)N[C@@H](CCCN=C(N)N)C(=O)N[C@H](C(=O)N[C@@H](CCC(=O)O)C(=O)N[C@@H](Cc1c[nH]c2ccccc12)C(=O)N[C@@H](CC(C)C)C(=O)N[C@@H](CCCN=C(N)N)C(=O)N[C@@H](CCCCN)C(=O)N[C@@H](CCCCN)C(=O)N[C@@H](CC(C)C)C(=O)N[C@@H](CCC(N)=O)C(=O)N[C@@H](CC(=O)O)C(=O)N[C@H](C(=O)N[C@@H](Cc1cnc[nH]1)C(=O)N[C@@H](CC(N)=O)C(=O)N[C@@H](Cc1ccccc1)C(=O)O)C(C)C)C(C)C` [Forteo, reference compound], the BMD [1, 6] is reported as 0.1997 g/mL, the BV [1, 6] is reported as 0.8791 mm^3 and the BV/TV [1, 6] is reported as 5.735%. The TV [1, 6] was 15.43 mm^3.

With `NCCCC(O)(P(=O)(O)O)P(=O)(O)O` [Fosamax, reference compound] the BMD [1, 6] was 0.2135 g/mL, the BV [1, 6] was 1.017 mm^3 and the BV/TV [1, 6] was 6.521%. The TV [1, 6] was 15.51 mm^3.

With `COc1cccc(-c2cc(=O)c3ccccc3o2)c1N` [PD98059, reference compound] the “expression of RUNX2” value (RUNX2 [2]; combination of QG3030 0.1 μM and PD98059 50 μM, 12 hours) was “significantly decreased” and the “increase in the phosphorylation level of ERK by QG3030” value (ERK [3]; combination of QG3030 0.1 μM and PD98059 50 μM) was “inhibited”.

With `CCN1C[C@]2(O)CC[C@H](OC)C34C1C(C[C@@H]32)[C@]1(O)C[C@H](OC)[C@@H]2C(=O)C(=O)[C@H]4[C@@H]21` [QG3030, (2aR,2a1S,3S,4aS,8S,11S,11bS,12S)-6-ethyl-4a,8-dihydroxy-3,11-dimethoxy-tetradecahydro-8,11a,5-(epiethane[1,1,2]triyl)cyclopenta[7,1]indeno[5,4-b]azocin-1,2-dione] the “expression of BMP-2” value (BMP-2) was “strongly induced the expression”, the “calcium (Alizarin Red staining)” value (human MSCs) was “induced calcium and mineral production” and the “mineral production (Von Kossa staining)” value (human MSCs) was “induced calcium and mineral production”. For the same compound, the “expression of RUNX2” value (RUNX2 [4]) was “strongly induced the expression”, the “tissue staining markers (H&E, collagen, type I collagen, osteocalcin) at bone defect sites” value (Sprague Dawley (SD) rat; QG3030 low, medium and high concentrations, effect similar to BMP2) was “markers were expressed” and the “bone quality by Tb.N and Tb.Sp (other than Tb.Th) compared to DMSO-treated group” value (Sprague Dawley (SD) rat; [7]) was “high-quality bone tissue was statistically significantly formed”. For the same compound, the “bone volume/total volume (BV/TV) compared to negative control treated with DMSO” value (Sprague Dawley (SD) rat; [7]) was “increased to a similar level”, the “quality of generated bone compared to BMP2” value (Sprague Dawley (SD) rat; no statistical significance) was “better quality of bone compared to BMP2” and the BMD [1, 8] was 0.2136 g/mL. It also gave a BV [1, 8] of 1.107 mm^3, a BV/TV [1, 8] of 6.713% and a TV [1, 8] of 16.57 mm^3. The “Tb. N” value [1, 8] was 0.9472 1/mm, the “Tb. Th” value [1, 8] was 0.07081 mm and the BMD [1, 9] was 0.2301 g/mL. It also gave a BV [1, 9] of 1.156 mm^3, a BV/TV [1, 9] of 7.731% and a TV [1, 9] of 14.92 mm^3. For the same compound, the “Tb. N” value [1, 9] was 1.044 1/mm, the “Tb. Th” value [1, 9] was 0.07492 mm and the “bone mineral density compared to the negative control” value [1, 10] was “significantly increased”. For the same compound, the “effect on bone mineral density compared with Forteo” value [1, 10] was “significantly superior to that of Forteo”, the “expression of RUNX2 in the femurs (tissue staining)” value ([1]; ovariectomized mice) was “significantly increased” and the “osteogenesis in the femurs (tissue staining)” value ([1]; ovariectomized mice) was “induced osteogenesis”. For the same compound, the “expression of RUNX2” value (RUNX2 [2]; QG3030 0.1 μM alone, within 12 hours) was “significantly increased”, the expression of osteocalcin (osteocalcin) was “strongly induced the expression of osteocalcin” and the “phosphorylation level of ERK” value (ERK [3]; QG3030 0.1 μM alone) was “increased”. The “phosphorylation of signaling molecules such as ERK, Akt, WNK1” value (ERK, Akt, WNK1) was “strongly increased the phosphorylation”, the “osteoblast differentiation ability of QG3030 (Alizarin Red) in combination with inhibitor of ERK, P38 or Akt” value (MSCs) was “inhibited” and the “level of phosphorylated ERK (pERK)” value (ERK [5]; 0.001, 0.01 and 0.1 μM, after 7 days and 14 days) was “significantly increased”. For the same compound, the “level of phosphorylated ERK (pERK)” value (ERK [5]; after 24 hours after treatment) was “increased”, the “level of phosphorylated ERK (pERK) compared with positive control (OIM)” value (ERK [5]; low concentration, 7 days, lasted until 14 days) was “greater than that of the positive control” and the “level of phosphorylated ERK (pERK)” value (ERK [5]; within 30 minutes after treatment) was “significantly increased”.
